Assay results published in ChEMBL document CHEMBL1157850, “Synthesis, spectral characterization and bioassay of 3,3'-(1,4-phenylene)-bis[2-alkoxycarbonyl-alkyl)-2-thio-benzoxa-phosphinines]” (Eur J Med Chem, 2010).
In brackets after ≈: the same amount, converted by molar mass. Activity calls are given as the source filed them. The calls are words filed in the database; no cut-off is given here.

Columns and labels:
Rattus norvegicus [1] = organism: Rattus norvegicus; assay: Antioxidant activity in Wistar albino rat assessed as inhibition of superoxide dismutase activity; type: functional, organism-based
Rattus norvegicus [2] = organism: Rattus norvegicus; assay: Antioxidant activity in Wistar albino rat assessed as reduced glutathione activity; type: functional, organism-based
Rattus norvegicus [3] = organism: Rattus norvegicus; assay: Antioxidant activity in Wistar albino rat assessed as catalase level; type: functional
Rattus norvegicus [4] = organism: Rattus norvegicus; assay: Antioxidant activity in Wistar albino rat assessed as lipid peroxidation level; type: functional, organism-based
Rattus norvegicus [5] = organism: Rattus norvegicus; assay: Antioxidant activity in Wistar albino rat assessed as inhibition of lipid peroxidation; type: functional, organism-based
Rattus norvegicus [6] = organism: Rattus norvegicus; assay: Antioxidant activity in Wistar albino rat assessed as inhibition of catalase activity; type: functional, organism-based
Rattus norvegicus [7] = organism: Rattus norvegicus; assay: Antioxidant activity in Wistar albino rat assessed as reduced glutathione level; type: functional
Rattus norvegicus [8] = organism: Rattus norvegicus; assay: Antioxidant activity in Wistar albino rat assessed as superoxide dismutase level; type: functional
[9] = Rattus norvegicus, Wistar albino, read-out: EC50

| Compound | EC50 (Rattus norvegicus [1]; [9]) [µg/mL] | EC50 (Rattus norvegicus [2]; [9]) [µg/mL] | EC50 (Rattus norvegicus [5]; [9]) [µg/mL] | EC50 (Rattus norvegicus [6]; [9]) [µg/mL] | EC50 (Rattus norvegicus [1]) [µg/mL] | EC50 (Rattus norvegicus [2]) [µg/mL] | EC50 (Rattus norvegicus [5]) [µg/mL] | EC50 (Rattus norvegicus [6]) [µg/mL] | Activity (Rattus norvegicus [3]) [µg/mL] | Activity (Rattus norvegicus [4]) [µg/mL] | Activity (Rattus norvegicus [7]) [µg/mL] | Activity (Rattus norvegicus [8]) |
| --- | --- | --- | --- | --- | --- | --- | --- | --- | --- | --- | --- | --- |
| VITAMIN E [listing 1 of 2 here] |  |  |  |  | 1.03 | 0.99 | 1.22 | 1.48 |  |  |  |  |
| VITAMIN E [listing 2 of 2 here] |  |  |  |  |  |  |  |  | 403 | 82.8 | 43.6 | 32.3 µg/mL |
| CCOC(=O)C1c2ccccc2CN1P1(=S)Oc2ccccc2CN1c1ccc(N2Cc3ccccc3OP2(=S)N2Cc3ccccc3C2C(=O)OCC)cc1 (centres undefined) | 1.55 (≈ 1.88 µM) | 1.49 (≈ 1.81 µM) | 1.56 (≈ 1.9 µM) | 1.68 (≈ 2.04 µM) |  |  |  |  | 285.58 | 75.7 | 5.77 | 30.59 µg/mL |
| Oc1ccccc1CNc1ccc(NCc2ccccc2O)cc1 | 4.58 (≈ 14.3 µM) | 5.42 (≈ 16.9 µM) | 5.02 (≈ 15.7 µM) | 6.05 (≈ 18.9 µM) |  |  |  |  | 262.55 | 70.7 | 4.8 | 26.27 µg/mL |
| CCOC(=O)C(NP1(=S)Oc2ccccc2CN1c1ccc(N2Cc3ccccc3OP2(=S)NC(C(=O)OCC)c2ccccc2)cc1)c1ccccc1 (centres undefined) | 2.42 (≈ 3.03 µM) | 2.15 (≈ 2.69 µM) | 2.57 (≈ 3.22 µM) | 2.98 (≈ 3.73 µM) |  |  |  |  | 270.32 | 70.5 | 4.12 | 29.31 µg/mL |
| COC(=O)C(Cc1c[nH]c2ccccc12)NP1(=S)Oc2ccccc2CN1c1ccc(N2Cc3ccccc3OP2(=S)NC(Cc2c[nH]c3ccccc23)C(=O)OC)cc1 (centres undefined) | 1.39 (≈ 1.59 µM) | 1.45 (≈ 1.65 µM) | 1.82 (≈ 2.08 µM) | 1.98 (≈ 2.26 µM) |  |  |  |  | 280.48 | 76.2 | 5.84 | 30.29 µg/mL |

Second part, led by results:

| EC50 (Rattus norvegicus [1]; [9]) [µg/mL] | EC50 (Rattus norvegicus [2]; [9]) [µg/mL] | EC50 (Rattus norvegicus [5]; [9]) [µg/mL] | EC50 (Rattus norvegicus [6]; [9]) [µg/mL] | EC50 (Rattus norvegicus [1]) [µg/mL] | EC50 (Rattus norvegicus [2]) [µg/mL] | EC50 (Rattus norvegicus [5]) [µg/mL] | EC50 (Rattus norvegicus [6]) [µg/mL] | Compound | Activity (Rattus norvegicus [3]) [µg/mL] | Activity (Rattus norvegicus [4]) [µg/mL] | Activity (Rattus norvegicus [7]) [µg/mL] | Activity (Rattus norvegicus [8]) |
| --- | --- | --- | --- | --- | --- | --- | --- | --- | --- | --- | --- | --- |
| 2.33 (≈ 3.19 µM) | 2.5 (≈ 3.42 µM) | 2.59 (≈ 3.54 µM) | 3.23 (≈ 4.42 µM) |  |  |  |  | CCCC(NP1(=S)Oc2ccccc2CN1c1ccc(N2Cc3ccccc3OP2(=S)NC(CCC)C(=O)OCC)cc1)C(=O)OCC (centres undefined) | 273.32 | 70.2 | 4.23 | 28.55 µg/mL |
| 2.98 (≈ 4.42 µM) | 2.68 (≈ 3.97 µM) | 3.1 (≈ 4.59 µM) | 3.38 (≈ 5.01 µM) |  |  |  |  | CCOC(=O)C(C)NP1(=S)Oc2ccccc2CN1c1ccc(N2Cc3ccccc3OP2(=S)NC(C)C(=O)OCC)cc1 (centres undefined) | 270.32 | 68.9 | 4.56 | 28.14 µg/mL |
| 1.98 (≈ 2.48 µM) | 2.05 (≈ 2.57 µM) | 2.1 (≈ 2.63 µM) | 2.2 (≈ 2.75 µM) |  |  |  |  | COC(=O)C(Cc1ccccc1)NP1(=S)Oc2ccccc2CN1c1ccc(N2Cc3ccccc3OP2(=S)NC(Cc2ccccc2)C(=O)OC)cc1 (centres undefined) | 279.43 | 72.9 | 4.21 | 29.42 µg/mL |
| 3.56 (≈ 5.51 µM) | 3.5 (≈ 5.41 µM) | 4.25 (≈ 6.57 µM) | 5.28 (≈ 8.16 µM) |  |  |  |  | COC(=O)C(C)NP1(=S)Oc2ccccc2CN1c1ccc(N2Cc3ccccc3OP2(=S)NC(C)C(=O)OC)cc1 (centres undefined) | 271.27 | 72.2 | 3.56 | 27.02 µg/mL |
| 0.99 (≈ 5.62 µM) | 0.98 (≈ 5.56 µM) | 1.02 (≈ 5.79 µM) | 1.37 (≈ 7.78 µM) |  |  |  |  | O=C1O[C@H]([C@@H](O)CO)C(O)=C1O [ASCORBIC ACID] | 385.46 | 88.1 | 31.34 | inactive |
| 2.31 (≈ 3.29 µM) | 2.66 (≈ 3.78 µM) | 2.91 (≈ 4.14 µM) | 3.98 (≈ 5.66 µM) |  |  |  |  | CCCC(NP1(=S)Oc2ccccc2CN1c1ccc(N2Cc3ccccc3OP2(=S)NC(CCC)C(=O)OC)cc1)C(=O)OC (centres undefined) | 265.43 | 68.2 | 5.02 | 27.8 µg/mL |
| 3.45 (≈ 4.91 µM) | 3.05 (≈ 4.34 µM) | 4.1 (≈ 5.83 µM) | 4.89 (≈ 6.96 µM) |  |  |  |  | COC(=O)C(NP1(=S)Oc2ccccc2CN1c1ccc(N2Cc3ccccc3OP2(=S)NC(C(=O)OC)C(C)C)cc1)C(C)C (centres undefined) | 277.59 | 72.3 | 4.73 | 27.86 µg/mL |
| 1.4 (≈ 1.8 µM) | 1.45 (≈ 1.86 µM) | 1.56 (≈ 2 µM) | 1.75 (≈ 2.25 µM) |  |  |  |  | COC(=O)C(Cc1c[nH]cn1)NP1(=S)Oc2ccccc2CN1c1ccc(N2Cc3ccccc3OP2(=S)NC(Cc2c[nH]cn2)C(=O)OC)cc1 (centres undefined) | 282.28 | 77.2 | 3.66 | 31.55 µg/mL |
